Test results: patent publication US20240423944A1, “USE OF LAURYL GALLATE (LG) AS A HEMOSTATIC AGENT” (CENTRE DE BIOTECHNOLOGIE DE SFAX (CBS), priority 2021, published 2024)

Assays:
Src kinases = test: Western blotting of Src kinase cleavage; type: cell-based, human
Procedure: (§1) Washed platelets were treated with LG (LC and HC) or DMSO. Aliquots were taken at 0, 2.5, 5 and 10 min, lysed with sample buffer and boiled. Proteins were loaded on to sodium dodecyl sulfate 10% polyacrylamide gel and, after electrophoresis, transferred to a nitrocellulose membrane. […] Phospho antibodies were diluted in TBS-Tween 5%-BSA (w/v) and incubated overnight and the others for 2 h. After washing, each blot was incubated with the corresponding horseradish peroxidase-conjugated anti-mouse or anti-rabbit. Immunoblots were developed using Super signal chemiluminescent substrate (Pierce, Rockford, IL) and analyzed with chemidoc Imaging system (Biorad).

CD62-P (P-selectin) = test: Flow cytometry of α-granule secretion marker CD62-P; type: cell-based, human
Procedure: (§2) Washed platelets were pre-incubated with LG or DMSO for 5 and 10 min at 37° C. Samples were then incubated for 15 min at room temperature in the dark with anti-CD62P, anti-CD63 or monoclonal antibody PAC-1. This last recognize and binds only to the active form of integrin αIIbβ3 complex. Analysis of respective protein was performed using a FACS-Verse cytometer BD Biosciences). Platelets were identified on the basis of their Forward Scatter and Side Scatter properties.

washed human platelets [1] = test: Washed platelet aggregation by turbidimetry (light transmission aggregometer); type: cell-based
Procedure: Healthy volunteers had abstained from Aspirin and others anti-inflammatory drugs for at least […] prior to blood sampling. Written informed consent was obtained from all donors. Blood samples were collected into sodium citrate 3.2% and centrifuged for 10 min at 190 g. The supernatant thus obtained was the platelet-rich plasma (PRP).
Washed platelets were prepared from centrifuged PRP previously supplemented with rostacyclin (0.5 μM) to avoid platelet activation. The pellet was suspended in buffer A (pH 6.8) containing 140 mM NaCl, 5 mM KCl, 5 mM KH2PO4, 1 mM MgSO4, 10 mM N-2-hydroxyethylpiperazine-N′-2-ethanesulfonic acid, 5 mM glucose and 0.35% bovine serum albumin (w/v). The same buffer containing 1 mM CaCl2 and apyrase but without BSA (adjusted to pH 7.4) was added to the final suspension to reach 2×10^8 platelets/ml.
Different concentrations of LG were added to 270 μl of PRP or washed platelets from an initial concentration of 250 mM. Platelet aggregation was recorded using a light transmission aggregometer (SD Medical). The percentage of transmittance of PRP or washed platelets was recorded as 0%, and that of the appropriate PPP or buffer was recorded as 100% respectively. Each condition was repeated for many healthy volunteers. Platelets treated with DMSO serves as negative control. Potentiation between low doses of LG and collagen or TRAP to aggregate platelets was also determined.

Akt = test: Western blotting of Akt phosphorylation (Ser473); type: cell-based, human
Procedure: as §1

CD63 = test: Flow cytometry of dense granule secretion marker CD63; type: cell-based, human; conditions: following addition of LG
Procedure: as §2

fungi = conditions: Kubo et al, 2003; cited from earlier work
αIIbβ3 integrin = test: Flow cytometry of αIIbβ3 activation with PAC-1 antibody; type: cell-based, human
Procedure: as §2

phosphatidylserine (PS) = test: Phosphatidylserine exposure by annexin V binding (flow cytometry); type: cell-based, human; conditions: LG 0.05 mM
Procedure: For phosphatidylserine exposure, washed platelets were pre-incubated with LG 0.05 mM or DMSO for 5 min at 37° C. Dilute the activated or non-activated sample with the 1× binding buffer provided in the kit to a final volume of 100 μl and add 5 μl of Annexin V AF647 (Clinisciences) for 15 min at 37° C. in the dark. The binding reaction is stopped with 500 ill of 1× binding buffer (Ramstrom 2010). Analysis was performed using LSR Fortessa cytometer (BD Biosciences).

[2] = test system: washed platelets from healthy donors; test: Measurement of LDH leakage from washed platelets; type: cell-based, human; conditions: low doses of LG 0.1 mM), 10 min
Procedure: Washed platelets from healthy donors were treated with different doses of LG or control (DMSO) for 10 minutes at 37° C. Following, platelets were pelleted by centrifugation at 1800×g for 3 min. Supernatants were used to detect Lactate dehydrogenase (LDH) release by colorimetric method (Thermo Fisher Scientific), according to the manufacturer's protocol. The assay was performed in endpoint time of increased of formazan absorbance at 680 nm for 30 min. Maximal LDH leakage was obtained with lysis buffer. Results, expressed as percentage of LDH leakage are mean±SEM (n=6) (** p<0.01, *** p<0.001 according to Kruskal-Wallis test).

animal viruses = conditions: Hurtado et al, 2008; cited from earlier work
p38 MAPK = test: Western blotting of p38 MAPK phosphorylation (Thr180/Tyr182); type: cell-based, human
Procedure: as §1

Wistar rats = test: Rat tail bleeding time; type: in vivo
Procedure: Wistar rats of either gender weighing between 200 and 250 g were purchased from the Central Pharmacy of Tunisia. Animal handling conforms to the European Convention (CE. no. 123). Animals were fed a standard chow diet and had free access to water. They were housed five rats in a cage (0.12 m^2). Bleeding time was measured by transection of the tail, 1 cm from the tip, of phenobarbital anesthetized rats (25 mg/kg. i.p). Immediately after transection, the tail was dipped for 5 seconds into LG solution (5, 50, or 100 mg/ml of LG dissolved in ethanol) or vehicle (ethanol) and then placed carefully on Whatman paper. Blood was allowed to drop on filter paper which was moved gently every 30 seconds until no more blood was dropped. […] The bleeding time was also determined for a lot of rats not treated with any solution (control) and for another treated with ethanol to test the effect of the solvent. Tranexamic acid (100 mg/ml) was used as a standard anti-hemorrhagic drug under the same conditions. Each condition was repeated for six rats.

washed human platelets [3] = test: Calcium mobilization with CalciFluor 8-AM and flow cytometry; type: cell-based
Procedure: Platelet calcium flux was adapted from the work described by (Monteiro et al. 1999). Washed platelets re-suspended at 10^8/ml in platelet wash buffer were incubated with the calcium indicator dyes Calcifluor 8-AM (R&D system) at 5 μM and Pluronic F-127 0.02% v/v (Sigma Aldrich) for 30 min at 37° C. The platelets were washed twice with platelet wash buffer, re-suspended in Tyrode's buffer containing EGTA (1 mM) or BAPTA-AM (10 μM). Changes in cytosolic calcium concentration were associated with increased or decreased fluorescence emission of Calcifluor 8-AM (emission wavelengths of 500-570 nm). These changes were analyzed using flow cytometry BD LSRII Fortessa. Results were expressed in fold increased Median Fluorescence. The determination of internal calcium concentration in platelet was described by Grynkiewicz et al. (1985).

tumoral cell lines = conditions: Ortega et al, 2003; cited from earlier work
[4] = test system: Gram-positive bacteria like Bacillus subtilis or Streptococcus mutans; conditions: cited from earlier work
[5] = test system: washed platelets from healthy donors; test: Scanning electron microscopy of platelets; type: cell-based, human; conditions: 10 min, non-shaking
Procedure: Platelets are treated with TRAP 25 μM, LG (LC and HC) during 10 minutes. They were fixed in 2.5% glutaraldehyde in 0.1 M Sorensen phosphate buffer (pH 7.4) for at least 1 h at 37° C. After sedimentation, the pellets were re-suspended in water and made to adhere on poly-lysine coated glass coverslips. Platelets were then dehydrated in a graded ethanol series and dried by critical point drying with a Leica EM CPD 300. The samples were coated with 6 nm Platinium on a Leica EM Med 020 before being examined on a FEI Quanta 250 FEG scanning electron microscope, at an accelerating voltage of 5 kV (Valet 2021).

human whole blood = test: Thrombus formation on immobilized collagen under flow conditions; type: cell-based; conditions: LG 0.05 mM
Procedure: This method was performed as previously described (Gratacap et al, 2009). Briefly, biochips with micro-capillaries (Vena8Fluoro+®, Cellix) were coated with collagen type I. Epi-fluorescence microscope (Axio Observer; Carl Zeiss) allowed direct visualization of platelet adhesion and aggregation which was recorded with ORCA-R2 camera (Hamamatsu). Whole blood was collected into 13.6 UI/m1 lithium heparinate and platelets were labeled with DIOC6(Life Technologies, 2 μM, 10 min at 37° C.) LG (0.05 mM) was then added to blood just prior to injection through a micro-capillary at shear rate of 1500 s^−1. Thrombus formation was visualized with a 40× long working distance objective in real time. The range was fixed to 80 μm and the interval to 1.5 μm. The acquisition rate was chosen at one frame every 30 sec divided into two positions. Quantification of surface coverage was performed off-line using ImageJ software.

platelets = conditions: Hongyan and Richard, 2004; cited from earlier work

Compound: CCCCCCCCCCCCOC(=O)c1cc(O)c(O)c(O)c1 [LG, Dodecyl 3,4,5-trihydroxybenzoate]
- Src-kinase cleavage (Src kinases; LG 0.75 mM, substantial at 10 min): induced a cleavage of Src-kinase
- Src-kinase cleavage (Src kinases; low dose of LG (0.05 mM)): no impact
- expression of CD62-P on the plasma membrane (CD62-P (P-selectin); LG 0.05 mM): markedly increased
- expression of CD62-P on the plasma membrane (CD62-P (P-selectin); LG 0.75 mM): markedly increased
- α-granule secretion intensity compared with 50 μM TRAP (CD62-P (P-selectin); versus 50 μM TRAP): slightly lower
- maximal platelet aggregation (washed human platelets [1]; LG 0.05 mM alone, washed human platelets, fast and stable): ~80%
- maximal platelet aggregation (washed human platelets [1]; high concentrations of LG (0.75 mM), slow response): ~50%
- shape of dose-response of platelet aggregation (washed human platelets [1]; increasing concentrations, first peak 0.05 mM, decrease until 0.2 mM, plateau 0.75 to 1 mM): non-monotonic dose-response
- Akt phosphorylation (Akt; LG 0.05 mM): rapid activation
- Akt activation (Akt; LG 0.75 mM): at later times
- plasma membrane expression level of CD63 (CD63): significantly increased
- antifungal activity (fungi): does not have antifungal activity
- activation of αIIbβ3, lower than that induced by 50 μM TRAP (αIIbβ3 integrin; LG 0.05 mM versus 50 μM TRAP): 50%
- expression of the active form of the fibrinogen receptor αIIbβ3 (αIIbβ3 integrin; particularly at 0.05 mM): significant increase
- exposure of PS on the platelet surface (annexin V binding) (phosphatidylserine (PS)): significant exposure
- LDH release from platelets [2]: no significant LDH release
- antiviral activity (animal viruses): potent antiviral activity
- p38 MAPK phosphorylation (p38 MAPK; LG 0.05 mM): rapid activation
- p38 MAPK activation (p38 MAPK; LG 0.75 mM): at later times
- efficiency on bleeding time compared with tranexamic acid (Wistar rats; LG 50 mg/ml versus tranexamic acid 100 mg/ml in ethanol): significantly more efficient
- tail bleeding time (Wistar rats; tail dipped 5 seconds, 50 mg/ml LG in ethanol): dramatically reduced
- cytoplasmic free calcium concentration (washed human platelets [3]; LG 0.05 mM, after 2.5 min): 230 ± 25 nM
- free cytosolic calcium (washed human platelets [3]; LG 0.75 mM, at 0.5 min): 105 ± 15 nM
- anti-proliferative and pro-apoptotic activity (tumoral cell lines): anti-proliferative and pro-apoptotic activity
- antibacterial activity [4]: antibacterial activity
- platelet morphology ([5]; LG 0.05 mM): induced platelet shape change and filopodia formation
- platelet morphology ([5]; LG 0.75 mM): membrane structure was strongly modified with a grainy appearance and apparent pores formation
- surface covered by platelets (human whole blood; collagen matrix, arterial shear rate): significantly increased
- thrombus volumes compared to control (human whole blood; collagen-coated microcapillaries, shear rate 1500 s^−1): significantly increased
- time to capillary occlusion (human whole blood; in several experiments, recording 300 s): < 300 s

Compound: CCCOC(=O)c1cc(O)c(O)c(O)c1 [propyl gallate]
- platelet aggregation (platelets): induce platelet aggregation

Compound: collagen [reference compound]
- platelet aggregation by agonist alone (washed human platelets [1]; collagen 0.15 μg/ml alone): unable to trigger detectable platelet aggregation
